Experimental data reported in patent publication US20170333591A9, “ABSORBENT ARTICLE COMPRISING MALODOR REDUCTION COMPOSITIONS” (The Procter & Gamble Company, priority 2014, published 2017).

Assay: Log of liquid dish neat product liquid-air partition coefficient
Format: physicochemical
Conditions: not given

Q: For `COc1ccc(COC(C)=O)cc1` [Material 664], which “Comment Code: Log of liquid dish neat product liquid-air partition coefficient” value (“Comment Code: Log” below) is on record?
A: The value was “K (Log of liquid dish neat product liquid-air partition coefficient greater than or equal to 7)”.

Q: Which “Comment Code: Log” value does the source give for `C=CC(C)(CCC=C(C)C)OC(=O)CCC` (centres unmarked) [Material 151] here?
A: Its value is “K (Log of liquid dish neat product liquid-air partition coefficient greater than or equal to 7)”.

Q: Which “Comment Code: Log” value does the source give for `CC1C(C)(C)C2=C(C3OC(C)(C)OC3CC2)C1(C)C` (centres unmarked) [Material 23] here?
A: Its value is “K (Log of liquid dish neat product liquid-air partition coefficient greater than or equal to 7)”.

Q: With `C=Cc1ccc(O)cc1` [Material 789] as the compound, how does the “Comment Code: Log” value read?
A: The value was “K (Log of liquid dish neat product liquid-air partition coefficient greater than or equal to 7)”.

Q: Which “Comment Code: Log” value does the source give for `COc1ccc(C=O)cc1OC` [Material 1118] here?
A: Its value is “K (Log of liquid dish neat product liquid-air partition coefficient greater than or equal to 7)”.

Q: With `CC(O)CCC1C(C)CCCC1(C)C` (centres unmarked) [Material 1052] as the compound, how does the “Comment Code: Log” value read?
A: The value was “K (Log of liquid dish neat product liquid-air partition coefficient greater than or equal to 7)”.

Q: With `C=CC(C)(O)CCC=C(C)C` (centres unmarked) [Material 157] as the compound, how does the “Comment Code: Log” value read?
A: Its value is “K (Log of liquid dish neat product liquid-air partition coefficient greater than or equal to 7)”.

Q: With `CC(=O)O[C@]1(C)CC[C@@]23C[C@@H]1C(C)(C)[C@@H]2CC[C@H]3C` [Material 567] as the compound, how does the “Comment Code: Log” value read?
A: The value was “K (Log of liquid dish neat product liquid-air partition coefficient greater than or equal to 7)”.

Q: Which “Comment Code: Log” value does the source give for `CC1CCOC(c2ccccc2)C1` (centres unmarked) [Material 420] here?
A: The value was “K (Log of liquid dish neat product liquid-air partition coefficient greater than or equal to 7)”.

Q: With `COC(Cc1ccccc1)OC` [Material 627] as the compound, how does the “Comment Code: Log” value read?
A: The value was “K (Log of liquid dish neat product liquid-air partition coefficient greater than or equal to 7)”.

Q: With `CC1=CC(C)C2C(CCC(C)(C)C2O)C1` (centres unmarked) [Material 39] as the compound, how does the “Comment Code: Log” value read?
A: Its value is “K (Log of liquid dish neat product liquid-air partition coefficient greater than or equal to 7)”.

Q: For `CC1=C2CC(C(C)(C)O)CCC2(C)CCC1` (centres unmarked) [Material 329], which “Comment Code: Log” value is on record?
A: The value was “K (Log of liquid dish neat product liquid-air partition coefficient greater than or equal to 7)”.

Q: Which “Comment Code: Log” value does the source give for `CC1CCCCCCCCCCCCC(=O)C1` (centres unmarked) [Material 206] here?
A: The value was “K (Log of liquid dish neat product liquid-air partition coefficient greater than or equal to 7)”.

Q: For `C[C@@H]1CC[C@H]2C(C)(C)[C@H]3C[C@@]12CC[C@@]3(C)O` [Material 569], which “Comment Code: Log” value is on record?
A: The value was “K (Log of liquid dish neat product liquid-air partition coefficient greater than or equal to 7)”.

Q: With `C=CC(C)(C#N)Cc1ccccc1` (centres unmarked) [Material 504] as the compound, how does the “Comment Code: Log” value read?
A: Its value is “K (Log of liquid dish neat product liquid-air partition coefficient greater than or equal to 7)”.

Q: Which “Comment Code: Log” value does the source give for `CC(=O)OC12CCCC(C)(CCC3C1CC3(C)C)C2` (centres unmarked) [Material 573] here?
A: The value was “K (Log of liquid dish neat product liquid-air partition coefficient greater than or equal to 7)”.

Q: For `COC(C)(C)CCCC(C)C=O` (centres unmarked) [Material 125], which “Comment Code: Log” value is on record?
A: Its value is “K (Log of liquid dish neat product liquid-air partition coefficient greater than or equal to 7)”.

Same assay, conditions: code letter within the Comment Code cell

Q: With `CC/C=C\CCOC(=O)C/C=C\CC` [Material 534] as the compound, how does the “Log of liquid dish neat product liquid-air partition coefficient (Comment Code K/L)” value (shortened to “Log … (Comment Code K/L)”) read?
A: Its value is “K (Log of liquid dish neat product liquid-air partition coefficient greater than or equal to 7)”.

Q: With `C=CCc1ccc(OC)cc1` [Material 119] as the compound, how does the “Log … (Comment Code K/L)” value read?
A: Its value is “K (Log of liquid dish neat product liquid-air partition coefficient greater than or equal to 7)”.

Q: With `c1ccc2occc2c1` [Material 493] as the compound, how does the “Log … (Comment Code K/L)” value read?
A: Its value is “K (Log of liquid dish neat product liquid-air partition coefficient greater than or equal to 7)”.

Q: For `CC(CCO)CCCC(C)(C)O` (centres unmarked) [Material 249], which “Log … (Comment Code K/L)” value is on record?
A: The value was “K (Log of liquid dish neat product liquid-air partition coefficient greater than or equal to 7)”.

Q: For `CCCCCCCCCCCC#N` [Material 498], which “Log … (Comment Code K/L)” value is on record?
A: Its value is “K (Log of liquid dish neat product liquid-air partition coefficient greater than or equal to 7)”.

Q: Which “Log … (Comment Code K/L)” value does the source give for `CC1C(C)(C)C2=C(C3OC(C)(C)OC3CC2)C1(C)C` (centres unmarked) [Material 23] here?
A: Its value is “K (Log of liquid dish neat product liquid-air partition coefficient greater than or equal to 7)”.

Q: Which “Log … (Comment Code K/L)” value does the source give for `CC/C=C\C/C=C\CCO` [Material 546] here?
A: The value was “K (Log of liquid dish neat product liquid-air partition coefficient greater than or equal to 7)”.

Q: For `c1ccc(CCc2ccccc2)cc1` [Material 457], which “Log … (Comment Code K/L)” value is on record?
A: Its value is “K (Log of liquid dish neat product liquid-air partition coefficient greater than or equal to 7)”.

Q: With `COC(OC)C(C)c1ccccc1` (centres unmarked) [Material 256] as the compound, how does the “Log … (Comment Code K/L)” value read?
A: Its value is “K (Log of liquid dish neat product liquid-air partition coefficient greater than or equal to 7)”.

Q: Which “Log … (Comment Code K/L)” value does the source give for `C=CC(C)=CCCC(C)(C)O` [Material 42] here?
A: Its value is “K (Log of liquid dish neat product liquid-air partition coefficient greater than or equal to 7)”.

Q: For `CC(C=O)Cc1ccc(C(C)(C)C)cc1` (centres unmarked) [Material 162], which “Log … (Comment Code K/L)” value is on record?
A: Its value is “K (Log of liquid dish neat product liquid-air partition coefficient greater than or equal to 7)”.

Q: For `C=CCCCCCCCCO` [Material 470], which “Log … (Comment Code K/L)” value is on record?
A: Its value is “K (Log of liquid dish neat product liquid-air partition coefficient greater than or equal to 7)”.

Q: Which “Log … (Comment Code K/L)” value does the source give for `CC1=CCC(=C(C)C)CCC(C)=CCC1` [Material 295] here?
A: The value was “K (Log of liquid dish neat product liquid-air partition coefficient greater than or equal to 7)”.

Q: With `CC1=CC2(C=CC(C)O2)C(C(C)C)CC1` (centres unmarked) [Material 68] as the compound, how does the “Log … (Comment Code K/L)” value read?
A: The value was “K (Log of liquid dish neat product liquid-air partition coefficient greater than or equal to 7)”.

Q: Which “Log … (Comment Code K/L)” value does the source give for `CCOC(=O)C1C(CC)=CCCC1(C)C` (centres unmarked) [Material 294] here?
A: Its value is “K (Log of liquid dish neat product liquid-air partition coefficient greater than or equal to 7)”.

Q: Which “Log … (Comment Code K/L)” value does the source give for `CC/C=C\CCC1=CCCC1=O` [Material 146] here?
A: Its value is “K (Log of liquid dish neat product liquid-air partition coefficient greater than or equal to 7)”.

Q: With `CC1=CC(C)C2C(CCC(C)(C)C2O)C1` (centres unmarked) [Material 39] as the compound, how does the “Log … (Comment Code K/L)” value read?
A: Its value is “K (Log of liquid dish neat product liquid-air partition coefficient greater than or equal to 7)”.

Q: With `CC1=C2CC(C(C)(C)O)CCC2(C)CCC1` (centres unmarked) [Material 329] as the compound, how does the “Log … (Comment Code K/L)” value read?
A: Its value is “K (Log of liquid dish neat product liquid-air partition coefficient greater than or equal to 7)”.

Q: With `CC(C=O)Cc1ccc2c(c1)OCO2` (centres unmarked) [Material 288] as the compound, how does the “Log … (Comment Code K/L)” value read?
A: Its value is “K (Log of liquid dish neat product liquid-air partition coefficient greater than or equal to 7)”.

Q: Which “Log … (Comment Code K/L)” value does the source give for `CCCCCCC1C(=O)CCC1C(=O)OC` (centres unmarked) [Material 450] here?
A: Its value is “K (Log of liquid dish neat product liquid-air partition coefficient greater than or equal to 7)”.

Q: With `C=CCCC(=O)C1CCCC(C)(C)C1` (centres unmarked) [Material 334] as the compound, how does the “Log … (Comment Code K/L)” value read?
A: Its value is “K (Log of liquid dish neat product liquid-air partition coefficient greater than or equal to 7)”.

Q: With `CC1CCCCCCCCCCCCC(=O)C1` (centres unmarked) [Material 206] as the compound, how does the “Log … (Comment Code K/L)” value read?
A: Its value is “K (Log of liquid dish neat product liquid-air partition coefficient greater than or equal to 7)”.

Q: For `CC(C)C1CCC(C(C)O)CC1` (centres unmarked) [Material 83], which “Log … (Comment Code K/L)” value is on record?
A: Its value is “K (Log of liquid dish neat product liquid-air partition coefficient greater than or equal to 7)”.

Q: Which “Log … (Comment Code K/L)” value does the source give for `O=CCCC=C1CC2CC1C1CCCC21` (centres unmarked) [Material 418] here?
A: The value was “K (Log of liquid dish neat product liquid-air partition coefficient greater than or equal to 7)”.

Same assay, conditions: code letters K/L of the Comment Code

Q: For `CC1=CCC(O)(C(C)C)CC1` (centres unmarked) [Material 791], which “Log of liquid dish neat product liquid-air partition coefficient (Comment Code)” value (“Log … (Comment Code)” below) is on record?
A: Its value is “K (Log of liquid dish neat product liquid-air partition coefficient greater than or equal to 7)”.

Q: For `CC1=CCC(O)(C(C)C)CC1` (centres unmarked) [Material 800], which “Log … (Comment Code)” value is on record?
A: Its value is “K (Log of liquid dish neat product liquid-air partition coefficient greater than or equal to 7)”.

Q: For `CC(=O)OC(C)CCC=C(C)CCC=C(C)C` (centres unmarked) [Material 881], which “Log … (Comment Code)” value is on record?
A: Its value is “K (Log of liquid dish neat product liquid-air partition coefficient greater than or equal to 7)”.

Q: Which “Log … (Comment Code)” value does the source give for `CC(C)=CCCC(C)=C1CC=C(C)CC1` [Material 608] here?
A: The value was “K (Log of liquid dish neat product liquid-air partition coefficient greater than or equal to 7)”.

Q: Which “Log … (Comment Code)” value does the source give for `C=CCCCCCCCCC=O` [Material 871] here?
A: The value was “K (Log of liquid dish neat product liquid-air partition coefficient greater than or equal to 7)”.

Q: Which “Log … (Comment Code)” value does the source give for `CCCCCCCCCCC=O` [Material 1102] here?
A: The value was “K (Log of liquid dish neat product liquid-air partition coefficient greater than or equal to 7)”.

Q: For `CC1=CCC(/C=C/C(C)(C)C(C)O)C1(C)C` (centres unmarked) [Material 985], which “Log … (Comment Code)” value is on record?
A: The value was “K (Log of liquid dish neat product liquid-air partition coefficient greater than or equal to 7)”.

Q: For `C/C(=C\C#N)CCc1ccccc1` [Material 894], which “Log … (Comment Code)” value is on record?
A: Its value is “K (Log of liquid dish neat product liquid-air partition coefficient greater than or equal to 7)”.

Q: For `C=CCCCCCCCCC(=O)OCCCC` [Material 599], which “Log … (Comment Code)” value is on record?
A: Its value is “K (Log of liquid dish neat product liquid-air partition coefficient greater than or equal to 7)”.

Q: Which “Log … (Comment Code)” value does the source give for `CC(=O)O[C@]1(C)CC[C@@]23C[C@@H]1C(C)(C)[C@@H]2CC[C@H]3C` [Material 567] here?
A: Its value is “K (Log of liquid dish neat product liquid-air partition coefficient greater than or equal to 7)”.

Q: For `COC(Cc1ccccc1)OC` [Material 627], which “Log … (Comment Code)” value is on record?
A: Its value is “K (Log of liquid dish neat product liquid-air partition coefficient greater than or equal to 7)”.

Q: With `C/C(=C/C#N)CCc1ccccc1` [Material 892] as the compound, how does the “Log … (Comment Code)” value read?
A: Its value is “K (Log of liquid dish neat product liquid-air partition coefficient greater than or equal to 7)”.

Q: For `C[C@@H]1CC[C@H]2C(C)(C)[C@H]3C[C@@]12CC[C@@]3(C)O` [Material 569], which “Log … (Comment Code)” value is on record?
A: The value was “K (Log of liquid dish neat product liquid-air partition coefficient greater than or equal to 7)”.

Q: For `CC(=O)OC12CCCC(C)(CCC3C1CC3(C)C)C2` (centres unmarked) [Material 573], which “Log … (Comment Code)” value is on record?
A: The value was “K (Log of liquid dish neat product liquid-air partition coefficient greater than or equal to 7)”.

Q: With `C=CCCC(=O)c1ccccc1` [Material 792] as the compound, how does the “Log … (Comment Code)” value read?
A: The value was “K (Log of liquid dish neat product liquid-air partition coefficient greater than or equal to 7)”.
